*1 amine or outer side, *2 acyl side, *3 side chain or, on linkers, in order; H or OH if unused. Where a SMILES comes first, the peptide text is derived from it. Bridges are numbered along the chain shown (N, C = ends). Where no end group is shown, it is not given here. [ ]: non-standard residue; d: D form. The star is where a group is joined. X1 = O=C(CC1(S[*:2])CCCCC1)[*:1]; NHCH2CH2OH = OCCN*; NHBu = CCCCN*
Assays:
[1] = system: vasopressor response; experiment: Vasopressor (VP) agonistic activity; format: in vivo; settings: Table 1; vasopressor agonism; ^+ = weak partial agonistic activity not clearly related to dose
[2] = system: ethanol-anesthesized water-loaded rats; experiment: Activity as antidiuretic agonists, intravenous injection; format: in vivo; settings: for Agonistic Activities ADH: Table 1, antidiuretic agonism, i.v., ^+ = weak partial agonistic activity not clearly related to dose
Protocol: Activity as antidiuretic agonists was determined by intravenous injection of the compounds being evaluated in ethanol-anesthesized water-loaded rats in accordance with Sawyer, Endocrinology, vol. 63 (1958) at 694. Antagonism of the antidiuretic response to subsequent injections of arginine vasopressin was tested by the method of Sawyer et al., Science, vol. 212 (1981) at 49.

[3] = system: vasopressor response to arginine vasopressin; experiment: Antagonism to the vasopressor response (Anti-VP); format: in vivo; settings: for Anti-VP pA2 / Anti-VP Potency pA2: estimated in vivo pA2
Outline: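 In vivo antagonism of arginine vasopressin pressor response per Dyckes et al. Effective dose (nmol/kg) is the antagonist dose making the response to 2x agonist units, injected 20 min later, equal that to 1x units. pA2 is the negative log of effective dose divided by 67 ml/kg distribution volume.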

[4] = system: antidiuretic response to arginine vasopressin; experiment: Antagonism of the antidiuretic response to arginine vasopressin (Anti-ADH); format: in vivo, rats; settings: for Anti-ADH Potency pA2: estimated in vivo pA2; for Anti-ADH pA2: Table 1, estimated in vivo pA2 = negative log of effective dose divided by volume of distribution (67 ml/kg)
Outline: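 Compounds were given intravenously to ethanol-anesthetized, water-loaded rats, followed by arginine vasopressin challenge. Effective dose (nmol/kg) is the antagonist dose that reduces the response to 2x units of agonist, given 20 min later, to the response to 1x units. pA2 is the negative log of effective dose divided by an estimated 67 ml/kg distribution volume.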

| Compound | Agonistic Activities VP [1] | Agonistic Activities ADH [2] [units/mg] | Anti-ADH Potency pA2 ([4]; Table 4) | Anti-VP Potency pA2 ([3]; Table 4, ^+ = mixed) | other results |
| --- | --- | --- | --- | --- | --- |
| NC(=O)CC[C@@H]1NC(=O)[C@H](Cc2ccccc2)NC(=O)[C@H](Cc2ccc(O)cc2)NC(=O)[C@@H](N)CSSC[C@@H](C(=O)N2CCC[C@H]2C(=O)N[C@@H](CCCN=C(N)N)C(=O)NCC(N)=O)NC(=O)[C@H](CC(N)=O)NC1=O [AVP, arginine vasopressin] | 382 ± 5 units/mg | 330 ± 23 | – | – | – |
| 9-desglycine-argoinine vasopressin (CYFQNCPR; disulfide 1-6 (inferred); ends not checked; UniProt P01185 20-27, looked up, fragment) [desGly^9 AVP] | < 0.05 units/mg | 164 ± 4 | – | – | Anti-VP ED ([3]; Table 1, effective dose): 68 ± 16 nmol/kg; Anti-VP pA2 ([3]; Table 1): 6.09 ± 0.10 |
| deamido-arginine vasopressin (CYFQNCPRG-OH; disulfide 1-6 (inferred); ends not checked; UniProt P01185 20-28, looked up) [AVP-acid, purchased from Bachem, Inc; alternatively, vasopressinoic acid] | < 0.03 units/mg | 4.7 ± 0.6 | – | – | antidiuretic character in vivo ([2]; Table 1 footnote b): antidiuretic agonist in vivo |
| 9-desglycinamide-arginine vasopressin (CYFQNCPR; disulfide 1-6 (inferred); ends not checked; UniProt P01185 20-27, looked up, fragment) [desGly^9 (NH2)AVP] | ~ 0.02 units/mg | 5.6 ± 1.1 | – | – | – |
| CC[C@H](C)[C@@H]1NC(=O)[C@H](Cc2ccccc2)NC(=O)[C@@H](Cc2ccccc2)NC(=O)CC2(CCCCC2)SSC[C@@H](C(=O)N2CCC[C@H]2C(=O)N[C@@H](CCCNC(=N)N)C(=O)N[C@H](C(N)=O)C(C)C)NC(=O)[C@H](CC(N)=O)NC1=O [Val(NH2), [1-(beta-mercapto-beta,beta-cyclopentamethylenepropionic acid), 2-D-phenylalanine, 4-isoleucine, 9-valinamide]-arginine vasopressin] ([dF]FINCPRV-NH2; linker N-5 via X1) | – | – | – | – | Anti-ADH Potency pA2 ([4]; Table 2): 8.11 ± 0.11; Anti-VP Potency pA2 ([3]; Table 2): 7.66 ± 0.10 |
| CC[C@H](C)[C@@H]1NC(=O)[C@H](Cc2ccccc2)NC(=O)[C@@H](Cc2ccccc2)NC(=O)CC2(CCCCC2)SSC[C@@H](C(=O)N2CCC[C@H]2C(=O)N[C@@H](CCCNC(=N)N)C(=O)NCC(=O)NC)NC(=O)[C@H](CC(N)=O)NC1=O [[1-(beta-mercapto-beta,beta-cyclopentamethylenepropionic acid), 2-D-phenylalanine, 4-isoleucine, 9-glycine-N-methylamide]-arginine vasopressin] ([dF]FINCPRG-NHMe; linker N-5 via X1) | – | – | 8.07 ± 0.07 | 6.22 | – |
| CCOc1ccc(C[C@H]2NC(=O)CC3(CCCCC3)SSC[C@@H](C(=O)N3CCC[C@H]3C(=O)N[C@@H](CCCNC(=N)N)C(N)=O)NC(=O)[C@H](CC(N)=O)NC(=O)[C@H](C(C)C)NC(=O)[C@H](Cc3ccccc3)NC2=O)cc1 [desGly^9 d(CH2)5 [D-Tyr(Et)^2]VAVP, [1-(beta-mercapto-beta,beta-cyclopentamethylenepropionic acid), 2-D-(O-ethyl)tyrosine, 4-valine, 9-desglycine]-arginine vasopressin] ([dY](Et)FVNCPR-NH2; linker N-5 via X1) | – | – | – | – | Anti-ADH pA2 [4]: 7.69 ± 0.08; Anti-VP pA2 ([3]; Table 1): 8.17 ± 0.04 |
| CC[C@H](C)[C@@H]1NC(=O)[C@H](Cc2ccccc2)NC(=O)[C@@H](Cc2ccccc2)NC(=O)CC2(CCCCC2)SSC[C@@H](C(=O)N2CCC[C@H]2C(=O)N[C@@H](CCCNC(=N)N)C(=O)N[C@H](C(N)=O)[C@@H](C)O)NC(=O)[C@H](CC(N)=O)NC1=O [Thr(NH2), [1-(beta-mercapto-beta,beta-cyclopentamethylenepropionic acid), 2-D-phenylalanine, 4-isoleucine, 9-threoinamide]-arginine vasopressin] ([dF]FINCPRT-NH2; linker N-5 via X1) | – | – | – | – | Anti-ADH Potency pA2 ([4]; Table 2): 7.39 ± 0.04; Anti-VP Potency pA2 ([3]; Table 2): 7.64 ± 0.11 |
| COc1ccc(C[C@@H]2NC(=O)CC3(CCCCC3)SSC[C@@H](C(=O)N3CCC[C@H]3C(=O)N[C@@H](CCCNC(=N)N)C(N)=O)NC(=O)[C@H](CC(N)=O)NC(=O)[C@H](CCC(N)=O)NC(=O)[C@H](Cc3ccccc3)NC2=O)cc1 [desGly^9 d(CH2)5 [Tyr(Me)^2]AVP, [1-(beta-mercapto-beta,beta-cyclopentamethylenepropionic acid), 2-(O-methyl)tyrosine, 9-desglycine]-arginine vasopressin] (Y(Me)FQNCPR-NH2; linker N-5 via X1) | – | – | – | – | Anti-ADH pA2 [4]: ~ 6.1; Anti-VP pA2 ([3]; Table 1): 8.44 ± 0.10 |
| CC[C@H](C)[C@@H]1NC(=O)[C@H](Cc2ccccc2)NC(=O)[C@@H](Cc2ccccc2)NC(=O)CC2(CCCCC2)SSC[C@@H](C(=O)N2CCC[C@H]2C(=O)N[C@@H](CCCNC(=N)N)C(=O)NCC(=O)NCCO)NC(=O)[C@H](CC(N)=O)NC1=O [[1-(beta-mercapto-beta,beta-cyclopentamethylenepropionic acid), 2-D-phenylalanine, 4-isoleucine, 9-glycine-N-(beta-hydroxy)ethylamide]-arginine vasopressin] ([dF]FINCPRG-NHCH2CH2OH; linker N-5 via X1) | – | – | 8.20 ± 0.12 | 6.92 ± 0.07 | – |
| COc1ccc(C[C@@H]2NC(=O)CC3(CCCCC3)SSC[C@@H](C(=O)N3CCC[C@H]3C(=O)N[C@@H](CCCNC(=N)N)C(=O)N[C@@H](C)C(N)=O)NC(=O)[C@H](CC(N)=O)NC(=O)[C@H](CCC(N)=O)NC(=O)[C@H](Cc3ccccc3)NC2=O)cc1 [Example 9(b), [1-(beta-mercapto-beta,beta-cyclopentamethylenepropionic acid), 2-(O-methyl)tyrosine, 9-alaninamide]-argine vasopressin] (Y(Me)FQNCPRA-NH2; linker N-5 via X1) | – | – | – | – | Anti-ADH: pA2 ([4]; text after Table 2): about 6.0; Anti-VP: pA2 ([3]; text after Table 2): 8.74±0.08 |
| CCCCNC(=O)CNC(=O)[C@H](CCCNC(=N)N)NC(=O)[C@@H]1CCCN1C(=O)[C@@H]1CSSC2(CCCCC2)CC(=O)N[C@H](Cc2ccccc2)C(=O)N[C@@H](Cc2ccccc2)C(=O)N[C@@H]([C@@H](C)CC)C(=O)N[C@@H](CC(N)=O)C(=O)N1 [[1-(beta-mercapto-beta,beta-cyclopentamethylenepropionic acid), 2-D-phenylalanine, 4-isoleucine, 9-glycine-N-(n-butyl)amide]-arginine vasopressin] ([dF]FINCPRG-NHBu; linker N-5 via X1) | – | – | 7.66 ± 0.05 | 6.80 ± 0.08 | – |
| CCNC(=O)CNC(=O)[C@H](CCCNC(=N)N)NC(=O)[C@@H]1CCCN1C(=O)[C@@H]1CSSC2(CCCCC2)CC(=O)N[C@H]([C@H](C)CC)C(=O)N[C@@H](Cc2ccccc2)C(=O)N[C@@H]([C@@H](C)CC)C(=O)N[C@@H](CC(N)=O)C(=O)N1 [[1-(beta-mercapto-beta,beta-cyclopentamethylenepropionic acid), 2-D-isoleucine, 4-isoleucine, 9-glycine-N-ethylamide]-arginine vasopressin] ([dI]FINCPRG-NHEt; linker N-5 via X1) | – | – | 7.86 ± 0.05 | 6.54 ± 0.11 | – |

— patent publication US4772586A, “Novel derivatives of arginine vasopressin antagonists” (Medical College of Ohio, priority 1986, dated 1988)
